These are literature values, as cited in patent US12497429B2, “Saponin-based vaccine adjuvants” (priority 2018, dated 2025).

The conditions of this series: compared to vaccine alone.

monophosphoryl lipid A [MPL]: the “boost of serum Ab titers” value is 10-20 fold.
